Test results taken from patent publication US9090589B2, “Specific nNOS inhibitors for the therapy and prevention of human melanoma” (priority 2011, dated 2015).
Entries after “also recorded” stand apart in the source; their conditions may differ. Where two headings read alike, the source gives them in different places. One block for each compound: values may come before it.

Experiments:
[1] = tested on: melanoma A375 cells; assay: L-arginine-induced intracellular NO, Griess reagent; assay type: cell-based, human
[2] = tested on: Lu1205 cells; assay: Total NOS activity, Ultrasensitive Colorimetric Assay; assay type: cell-based, human
[3] = tested on: metastatic melanoma cells; assay: Matrigel invasion assay; assay type: cell-based, human
[4] = tested on: metastatic melanoma A375 cells in skin equivalents; assay: 3-dimensional skin reconstructs, melanoma growth; assay type: cell-based, human; conditions: 2 weeks
[5] = target: nNOS (Rattus norvegicus (Rat), UniProt P29476); assay: biochemical; conditions: recombinant isozyme
[6] = target: T1, iNOS (Mus musculus (Mouse), UniProt P29477); conditions: read-out: Ki iNOS; recombinant isozyme
[7] = tested on: human melanoma cells; assay: MTT proliferation of melanoma cells under DETA/NO stress; assay type: cell-based
[8] = tested on: human primary melanocytes; assay: MTT proliferation of primary melanocytes; assay type: cell-based; conditions: 12-day period, DETA/NO exposure
[9] = tested on: nNOS expression in normal melanocytes; assay: nNOS expression in normal melanocytes; assay type: cell-based, human; conditions: DETA/NO
[10] = target: T2, iNOS (Homo sapiens (Human), UniProt P35228); assay type: biochemical
[11] = target: T2, iNOS; conditions: cited from earlier work
[12] = target: nNOS (Homo sapiens (Human), UniProt P29475); conditions: cited from earlier work
[13] = tested on: nNOS; assay: biochemical; conditions: for Selectivity nNOS/eNOS: Ki(eNOS)/Ki(nNOS); for Selectivity nNOS/iNOS: Ki(iNOS)/Ki(nNOS)
[14] = target: T3, eNOS (Bos taurus (Bovine), UniProt P29473); conditions: read-out: Ki eNOS; recombinant isozyme
[15] = tested on: wm3211; assay: Cytotoxicity in melanoma cell line; assay type: cell-based; conditions: Homo sapiens
[16] = tested on: Sk-Mel28; assay: Cytotoxicity in melanoma cell line; assay type: cell-based; conditions: Homo sapiens, SK-MEL-28
[17] = target: T1, iNOS; assay: biochemical
[18] = target: T3, eNOS; assay: biochemical
[19] = tested on: nNOS expression in melanoma cells; assay: nNOS expression by immunoblotting in melanoma cells; assay type: cell-based, human; conditions: for induction of nNOS by DETA/NO or UVB radiation: as low as 1 μM
[20] = tested on: metastatic melanoma A375 cells; assay: Adhesion of A375 cells to fibroblast monolayer; assay type: cell-based, human; conditions: 2 μM, 1 hour

Structure (SMILES): COc1cc(/C=C/C(=O)CC(=O)/C=C/c2ccc(O)c(OC)c2)ccc1O [curcumin]
L-arginine-induced NO generation ([1]; up to 50 μM): not affected at all; also recorded: failed to inhibit

Structure (SMILES): Cl.Cl.Cl.NCCCCNCCCN [Spermidine trihydrochloride (ST), Spermidine trihydrochloride, reference compound]
NOS activity in metastatic Lu1205 cells ([2]; 10 μM): comparable inhibition of NOS activity

Structure (SMILES): N=C(N)NCCC[C@H](N)C(=O)O [L-arginine, reference compound]
invasion potential of metastatic melanoma cells ([3]; 2.87 mM): markedly enhanced the invasion potential
melanoma growth in 3D skin equivalents ([4]; 2.87 mM): significantly promoted melanoma growth
intracellular NO level ([1]; incubation with L-arginine, A375 cells): increased

Ki [5]: 98 nM
Ki [6]: 5.84 µM
Structure (SMILES): Cc1cc(N)nc(C[C@H]2CNC[C@H]2NCCN)c1 [Compound 5, N^1-((3S,4S)-4-((6-amino-4-methylpyridin-2-yl)methyl)pyrrolidin-3-yl)ethane-1,2-diamine]

Structure (SMILES): NCCN(CCN)[N+]([O-])=NO [DETA/NO, 1-[N-(2-Aminoethyl)-N-(2-ammonioethyl)amino]diazen-1-ium-1,2-diolate, reference compound]
proliferation of metastatic Lu1205 and SK-Mel28 cells ([7]; 100 μM): Marked stimulation of proliferation
proliferation of primary melanoma wm3211 cells ([7]; 100 μM): not significant
cell proliferation of primary melanocytes [8]: significantly stimulated
nNOS induction in melanocytes [9]: not evident

Structure (SMILES): N=C(N)SCCc1cccc(CCSC(=N)N)c1 [PBIT, 1,3-phenylene-bis(1,2-ethanediyl)bisisothiourea]
iNOS selectivity over nNOS [10]: 1.5 fold
Ki [11]: 19 nM
Ki [12]: 29 nM

Structure (SMILES): Oc1ccc(C=Cc2cc(O)cc(O)c2)cc1 [resveratrol]
L-arginine-induced NO generation ([1]; up to 50 μM): not affected at all; also recorded: failed to inhibit

Ki [5]: 210 nM
Ki [6]: 13.6 µM
Ki [14]: 116 µM
Structure (SMILES): Cc1cc(N)nc(C[C@H]2CNC[C@H]2NCCNCc2cccc(C(F)(F)F)c2)c1 [Compound 3, N^1-((3S,4S)-4-((6-amino-4-methylpyridin-2-yl)methyl)pyrrolidin-3-yl)-N^2-(3-(trifluoromethyl)benzyl)ethane-1,2-diamine]
Selectivity nNOS/eNOS [13]: 552.4
Selectivity nNOS/iNOS [13]: 64.8

Ki [5]: 48000 nM
Ki [17]: 609 µM
Ki [18]: 122 µM
Structure (SMILES): Nc1cccc(C[C@H]2CN(Cc3ccccc3)C[C@H]2NCCCc2ccccc2)n1 [Compound 2, 6-(((3S,4S)-1-benzyl-4-((3-phenylpropyl)amino)pyrrolidin-3-yl)methyl)pyridin-2-amine]
Selectivity nNOS/eNOS [13]: 2.5
Selectivity nNOS/iNOS [13]: 12.7
IC50 [15]: 5 µM
IC50 [16]: 3.5 µM

Structure (SMILES): Cc1cc(N)nc(C[C@H]2CNC[C@@H]2NCCNCCc2cccc(F)c2)c1 [Compound 8, N^1-((3R,4S)-4-((6-amino-4-methylpyridin-2-yl)methyl)pyrrolidin-3-yl)-N^2-(3-fluorophenethyl)ethane-1,2-diamine]
NOS activity in metastatic Lu1205 cells ([2]; 1 μM): significantly reduced total NOS activities; also recorded: effectively inhibited
induction of nNOS by DETA/NO or UVB radiation ([19]; listed as Cpd 8): effectively inhibited the induction of nNOS
induction of nNOS by DETA/NO or UVB radiation ([19]; listed as cpd 8): inhibited nNOS expression
basal nNOS levels of melanoma cells ([19]; up to 200 μM): does not affect basal nNOS levels
DETA/NO-stimulated proliferation ([7]; co-treatment, after 3 days): significantly reversed
invasion potential elevated by L-arginine ([3]; A375 cells, co-treatment with L-arginine 2.87 mM): inhibited; also recorded: efficiently reversed
cell invasion potential elevated by DETA/NO ([3]; co-treatment with DETA/NO): reversed
melanoma overgrowth induced by L-arginine in skin reconstruct ([4]; 2 μM, L-arginine 2.87 mM): reversed the overgrowth induced by L-arginine
L-arginine-induced NO generation ([1]; as low as 1 μM, listed as cpd 8): inhibited; also recorded: efficiently inhibited NO production; also recorded: reduced
L-arginine-stimulated adhesion of A375 cells to fibroblast cells [20]: most potent inhibition of the relative adhesion
